Measured values published in patent US20130184337A1, “SODIUM ASCORBATE STIMULATION OF ELASTOGENESIS” (THE HOSPITAL FOR SICK CHILDREN, priority 2012, published 2013).
Entries after “also recorded” stand apart in the source; their conditions may differ.

Tests used:
[1] = test system: explants of dermal scars; assay: Organ culture of skin explants (histochemistry, insoluble elastin); assay type: cell-based, human; conditions: 200 μM SA
Description: Organ culture of skin explants—Fragments of normal skin, stretch-marked skin and dermal scars collected during plastic surgery procedures were cut into multiple 4 mm2 pieces and maintained for 7 days in DMEM medium containing 5% FBS, […] The parallel quadruplicate explants from each experimental group were additionally maintained in the presence 2 μCi of [3H]-valine/ml and then subjected to the assay of insoluble elastin. The parallel explants from each experimental groups were also evaluated after pentachrome Movat's staining which allows for clear marking of elastic fibers. In each experimental group, 50 sections derived from quadruplicate explants were analyzed.

[2] = test system: explants of dermal stretch marks; assay: Organ culture of skin explants (Movat pentachrome morphometry, insoluble elastin); assay type: cell-based, human; conditions: 200 μM, 10-day-long daily treatment
Description: The parallel quadruplicate explants from each experimental group were additionally maintained in the presence 2 μCi of [3H]-valine/ml and then subjected to the assay of insoluble elastin. The parallel explants from each experimental groups were also evaluated after pentachrome Movat's staining which allows for clear marking of elastic fibers. In each experimental group, 50 sections derived from quadruplicate explants were analyzed.

[3] = test system: insulin receptor; assay: Insulin receptor phosphorylation (immuno-precipitation, anti-phospho-tyrosine Western blot); assay type: cell-based, human; conditions: 100 μM SA, basic or insulin-induced
Description: (§1) At the end of each experiment cells were submerged in the lysis buffer containing a broad-range phosphatase inhibitor. The polyclonal antibodies recognizing either the β subunits of the IGF-IR or the β subunit of the insulin receptor were immobilized on separate sets of the IgG-bearing magnetic beads (Invitrogen Canada Inc, Burlington, ON) and then incubated for 1 hour with the aliquots of the cell lysates containing 400 μg of protein as described in the manufacturer protocol. The beads bearing the resulting immuno-precipitation products were re-suspended in sample buffer and the released proteins were resolved with SDS-PAGE and subjected to Western blotting with a monoclonal anti-p-Tyr (PY99) antibody from Santa Cruz Biotechnology Inc. (Santa Cruz, Calif.) and then with HRP-conjugated goat anti-mouse secondary antibody.

[4] = test system: intracellular tropoelastin; assay: Western blot of intracellular tropoelastin; assay type: cell-based, human; conditions: 50-200 μM, 20-hour-old cultures, 5% FBS
Description: Western Blots—At the end of indicated experiments, cells were lysed with NP-40 buffer containing a cocktail of broad spectrum inhibitors of proteinases and phosphatases. The 50 μg aliquots of protein extract were then resolved by SDS-PAGE gel (4-12% gradient) in reducing conditions and analyzed by Western blot with antibodies indicated in figure legends, as previously described. Initial blots were also re-probed with monoclonal anti-β-actin antibody (Cell Signaling Technology Inc., Danvers, Mass.) to confirm the equal protein loading. The degree of expression was measured by densitometry.

[5] = molecular target: T1, IGF-1 receptor (Homo sapiens, UniProt P08069); assay: IGF-1R phosphorylation (immuno-precipitation, anti-phospho-tyrosine Western blot); assay type: cell-based; conditions: for levels of IGF-1R phosphorylation: 100 μM SA alone
T1 construct: immuno-precipitated with antibody to β subunit of IGF-1R and detected by Western blotting with anti-phospho-tyrosine antibody; endogenous in cells; host or cells: cultured dermal fibroblasts
T1 sequence (P08069 741-1367 limits assumed): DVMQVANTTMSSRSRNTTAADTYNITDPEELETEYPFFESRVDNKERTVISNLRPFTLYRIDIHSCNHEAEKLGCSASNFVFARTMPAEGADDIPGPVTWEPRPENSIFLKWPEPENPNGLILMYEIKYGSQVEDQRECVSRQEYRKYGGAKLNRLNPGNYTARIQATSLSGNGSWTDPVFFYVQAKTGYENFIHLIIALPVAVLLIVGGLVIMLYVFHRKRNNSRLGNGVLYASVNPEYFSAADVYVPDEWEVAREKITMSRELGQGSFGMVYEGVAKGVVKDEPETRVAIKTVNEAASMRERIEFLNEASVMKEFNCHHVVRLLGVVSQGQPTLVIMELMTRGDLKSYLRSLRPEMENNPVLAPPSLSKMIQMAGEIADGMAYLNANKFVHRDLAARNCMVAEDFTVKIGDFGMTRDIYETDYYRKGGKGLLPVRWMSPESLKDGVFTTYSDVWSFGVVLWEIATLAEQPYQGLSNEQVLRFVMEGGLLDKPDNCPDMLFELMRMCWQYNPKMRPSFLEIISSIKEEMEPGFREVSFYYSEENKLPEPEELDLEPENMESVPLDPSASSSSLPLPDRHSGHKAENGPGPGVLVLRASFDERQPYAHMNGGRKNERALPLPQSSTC
T1 sequence (P08069 31-736 partner limits assumed): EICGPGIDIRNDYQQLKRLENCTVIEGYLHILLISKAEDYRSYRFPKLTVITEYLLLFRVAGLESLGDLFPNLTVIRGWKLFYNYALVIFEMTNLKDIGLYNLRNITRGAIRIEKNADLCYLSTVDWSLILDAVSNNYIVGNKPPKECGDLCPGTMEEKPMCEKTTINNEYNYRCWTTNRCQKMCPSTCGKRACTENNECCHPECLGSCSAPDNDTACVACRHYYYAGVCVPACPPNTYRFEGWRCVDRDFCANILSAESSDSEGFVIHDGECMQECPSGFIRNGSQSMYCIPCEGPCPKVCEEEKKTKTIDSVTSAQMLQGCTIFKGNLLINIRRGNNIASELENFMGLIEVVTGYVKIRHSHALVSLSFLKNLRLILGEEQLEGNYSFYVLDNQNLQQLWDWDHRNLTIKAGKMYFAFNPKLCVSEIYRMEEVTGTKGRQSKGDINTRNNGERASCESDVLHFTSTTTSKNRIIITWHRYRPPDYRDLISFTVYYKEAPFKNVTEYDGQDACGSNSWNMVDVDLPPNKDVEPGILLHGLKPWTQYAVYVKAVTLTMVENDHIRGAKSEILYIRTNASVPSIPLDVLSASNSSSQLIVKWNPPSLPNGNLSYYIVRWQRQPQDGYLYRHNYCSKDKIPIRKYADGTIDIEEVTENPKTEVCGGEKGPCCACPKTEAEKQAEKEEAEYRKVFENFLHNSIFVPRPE
Description: as §1

[6] = test system: normal dermal fibroblasts; assay: Collagen fiber deposition (immuno-staining of collagen type I, morphometry); assay type: cell-based, human; conditions: 100 μM, 24-hour-old cultures, 5% FBS
Description: Cell Cultures—Fibroblasts initially grew out from the explants of these full thickness skin biopsies and were maintained. The primary cultures of fat-derived fibroblasts obtained from Thermogenesis (Rancho Cordova, Calif.) were also tested. In all described experiments, 2-4 passages of both kinds of fibroblasts were used. In experiments aimed at assessing ECM production, cells were initially plated at a concentration of 100,000 cells/dish. Confluent cultures were then maintained either in serum-free medium (DMEM) or in medium supplemented with 5% FBS in the presence of different reagents that were added 1 hour before treatments with SA.
Immuno-staining—All cultures maintained in the presence and absence of indicated reagents were either fixed in cold 100% methanol at −20° C. (for detection of elastin) or in 4% paraformaldehyde at room temperature (for detection of collagen I). The multiple parallel cultures were then incubated with 10 μg/ml of polyclonal antibody to tropoelastin (Elastin Products, Owensville, Mich.), or polyclonal antibody to collagen type I (Chemicon, Temecula, Calif.). Cultures were then incubated with the respective fluorescein-conjugated goat anti-rabbit, goat anti-mouse, or rabbit anti-goat secondary antibodies. Nuclei were counterstained with propidium iodide (Sigma, Sigma, St. Louis, Mo.). All of the cultures were then examined with a Nikon Eclipse E1000 microscope attached to a cooled CCD camera (QImaging, Retiga EX) and analyzed by the computer-generated morphometric analysis system (Image-Pro Plus software, Media Cybernetics, Silver Springs, Md.) as previously described.

[7] = test system: fat tissue-derived fibroblasts; assay: Elastin deposition (immuno-staining morphometry, insoluble elastin assay) in fat-derived fibroblasts; assay type: cell-based, human; conditions: 50-200 μM, on average, p<0.01
Description: Cell Cultures-Fibroblasts initially grew out from the explants of these full thickness skin biopsies and were maintained. The primary cultures of fat-derived fibroblasts obtained from Thermogenesis (Rancho Cordova, Calif.) were also tested. In all described experiments, 2-4 passages of both kinds of fibroblasts were used. In experiments aimed at assessing ECM production, cells were initially plated at a concentration of 100,000 cells/dish. […] Immuno-staining-All cultures maintained in the presence and absence of indicated reagents were either fixed in cold 100% methanol at -20° C. (for detection of elastin) or in 4% paraformaldehyde at room temperature (for detection of collagen I). The multiple parallel cultures were then incubated with 10 μg/ml of polyclonal antibody to tropoelastin (Elastin Products, Owensville, Mich.), or polyclonal antibody to collagen type I (Chemicon, Temecula, Calif.). […] All of the cultures were then examined with a Nikon Eclipse […] microscope attached to a cooled CCD camera (QImaging, Retiga EX) and analyzed by the computer-generated morphometric analysis system (Image-Pro Plus software, Media Cybernetics, Silver Springs, Md.) as previously described. Quantitative Assays of Insoluble Elastin-Fibroblasts were grown to confluency in 35-mm culture dishes (100,000 cells/dish). […]

O=C1O[C@H]([C@@H](O)CO)C([O-])=C1O.[Na+] [SA, (+)-sodium L-ascorbate]
production of new elastic fibers [1]: initiated production of new elastic fibers
elastogenesis [2]: restored the practically non-existent elastogenesis
phosphorylation of insulin receptor [3]: did not induce heightened phosphorylation; also recorded: does not enhance basic or insulin-induced phosphorylation of insulin receptor
levels of newly synthesized tropoelastin [4]: increase in the levels of newly synthesized tropoelastin
levels of IGF-1R phosphorylation ([5]; medium with FBS): remarkably enhanced levels of IGF-1R phosphorylation; also recorded: enhances the level of phosphorylation of the IGF-1R
levels of IGF-1R phosphorylation ([5]; serum-free medium): did not reveal any increase in IGF-1R phosphorylation
levels of IGF-1-induced IGF-1R phosphorylation ([5]; 100 μM SA plus 50 ng/ml IGF-1, both tested media): significantly enhanced the levels of phosphorylated IGF-IR; also recorded: enhances levels of IGF-1-induced IGF-IR phosphorylation in both tested media
deposition of immuno-detected collagen fibers [6]: more potent up-regulation in the deposition of immuno-detected collagen fibers than 100 μM AA; also recorded: more potent upregulation in collagen fibers deposition than 100 μM AA
increase in elastin deposition [7]: 22%+/−4%
